# Patent US20230159546A1, “NOVEL SPIROPYRROLIDINE DERIVED ANTIVIRAL AGENTS” (Enanta Pharmaceuticals, Inc., priority 2021, published 2023)
# Where two headings read alike, the source gives them in different places.
# Molecular target: SARS-CoV-2 3CL-protease (Severe acute respiratory syndrome coronavirus 2, UniProt P0DTD1)
# Assay: SARS-CoV-2 3C-like (3CL) protease fluorescence assay (FRET)
# Assay type: biochemical
# [1] = recombinant SARS-CoV-2 3CL-protease 10 nM, 30 min preincubation at RT, duplicate, read-out: FRET IC50
Structure (SMILES),IC50 [1],IC50
N#C[C@@H]1C[C@@]2(CN1C(=O)c1cc3ccccc3[nH]1)C(=O)Nc1ccccc12 [Example 54],> 1000 nM,
N#C[C@@H]1C[C@@]2(CN1S(=O)(=O)c1ccccc1)C(=O)Nc1ccccc12 [Example 55],> 1000 nM,
N#C[C@@H]1C[C@@]2(CN1S(=O)(=O)c1ccc(F)cc1)C(=O)Nc1ccccc12 [Example 56],> 1000 nM,
CC(C)NS(=O)(=O)N1C[C@]2(C[C@H]1C#N)C(=O)Nc1ccccc12 [Example 57],> 1000 nM,
N#C[C@@H]1C[C@@]2(CN1S(=O)(=O)NC1CC1)C(=O)Nc1ccccc12 [Example 58],> 1000 nM,
N#C[C@@H]1C[C@@]2(CN1S(=O)(=O)NC1CCC1)C(=O)Nc1ccccc12 [Example 59],> 1000 nM,
N#C[C@@H]1C[C@@]2(CN1S(=O)(=O)NC1CCCC1)C(=O)Nc1ccccc12 [Example 60],> 1000 nM,
N#C[C@@H]1C[C@@]2(CN1S(=O)(=O)NC1CCCCC1)C(=O)Nc1ccccc12 [Example 61],> 1000 nM,
N#C[C@@H]1C[C@@]2(CN1S(=O)(=O)Nc1ccc(F)cc1)C(=O)Nc1ccccc12 [Example 62],> 1000 nM,
N#C[C@@H]1C[C@@]2(CN1S(=O)(=O)NCc1nccs1)C(=O)Nc1ccccc12 [Example 63],> 1000 nM,
CC(C)CN1C[C@]2(C[C@H]1C#N)C(=O)Nc1ccccc12 [Example 64],> 1000 nM,
CC(C)CN1C[C@]2(C[C@@H]1C#N)C(=O)Nc1ccccc12 [Example 65],> 1000 nM,
N#C[C@@H]1C[C@@]2(CN1CC1CC1)C(=O)Nc1ccccc12 [Example 66],> 1000 nM,
CCOC(=O)N1C[C@]2(C[C@H]1C#N)C(=O)Nc1ccccc12 [Example 67],,> 1000 nM
CC(C)OC(=O)N1C[C@]2(C[C@H]1C#N)C(=O)Nc1ccccc12 [Example 68],> 1000 nM,
N#C[C@@H]1C[C@@]2(CN1C(=O)OC1CC1)C(=O)Nc1ccccc12 [Example 69],> 1000 nM,
N#C[C@@H]1C[C@@]2(CN1C(=O)OC1CCCC1)C(=O)Nc1ccccc12 [Example 70],> 1000 nM,
N#C[C@@H]1C[C@@]2(CN1C(=O)Oc1ccccc1)C(=O)Nc1ccccc12 [Example 71],,> 1000 nM
N#C[C@@H]1C[C@@]2(CN1C(=O)OCc1ccccc1)C(=O)Nc1ccccc12 [Example 72],100 to 1000 nM,
N#C[C@@H]1C[C@@]2(CN1C(=O)C(=O)Nc1ccccc1)C(=O)Nc1ccccc12 [Example 73],> 1000 nM,
CC(C)(C(=O)NC1CCCCC1)C(=O)N1C[C@]2(C[C@H]1C#N)C(=O)Nc1ccccc12 [Example 74],> 1000 nM,
N#C[C@@H]1C[C@@]2(CN1C(=O)C1(C(=O)Nc3ccccc3)CC1)C(=O)Nc1ccccc12 [Example 75],> 1000 nM,
N#C[C@@H]1C[C@@]2(CN1S(=O)(=O)Nc1ccc3cccnc3c1)C(=O)Nc1ccccc12 [Example 76],> 1000 nM,
N#C[C@@H]1C[C@@]2(CN1C(=O)OC1CCCCC1)C(=O)Nc1ccccc12 [Example 77],> 1000 nM,
N#C[C@@H]1C[C@@]2(CN1C(=O)C(=O)NC1CC1)C(=O)Nc1ccccc12 [Example 78],> 1000 nM,
N#C[C@@H]1C[C@@]2(CN1C(=O)C(=O)NC1CCCCC1)C(=O)Nc1ccccc12 [Example 79],100 to 1000 nM,

Structure (SMILES),IC50 [1],IC50
N#C[C@@H]1C[C@@]2(CN1C(=O)C(=O)NCc1ccccc1)C(=O)Nc1ccccc12 [Example 80],100 to 1000 nM,
N#C[C@@H]1C[C@@]2(CN1C(=O)C(=O)NCc1nccs1)C(=O)Nc1ccccc12 [Example 81],> 1000 nM,
CC(C)NC(=O)C(C)(C)C(=O)N1C[C@]2(C[C@H]1C#N)C(=O)Nc1ccccc12 [Example 82],> 1000 nM,
CC(C)(C(=O)NC1CC1)C(=O)N1C[C@]2(C[C@H]1C#N)C(=O)Nc1ccccc12 [Example 83],> 1000 nM,
CC(C)(C(=O)Nc1ccccc1)C(=O)N1C[C@]2(C[C@H]1C#N)C(=O)Nc1ccccc12 [Example 84],> 1000 nM,
N#C[C@@H]1C[C@@]2(CN1S(=O)(=O)Nc1ccccc1)C(=O)Nc1ccccc12 [Example 85],> 1000 nM,
N#C[C@@H]1C[C@@]2(CN1C(=O)OCc1nccs1)C(=O)Nc1ccccc12 [Example 86],> 1000 nM,
N#C[C@@H]1C[C@@]2(CN1C(=O)OCn1cccn1)C(=O)Nc1ccccc12 [Example 87],> 1000 nM,
CCNC(=O)C(=O)N1C[C@]2(C[C@H]1C#N)C(=O)Nc1ccccc12 [Example 88],> 1000 nM,
CC(C)NC(=O)C(=O)N1C[C@]2(C[C@H]1C#N)C(=O)Nc1ccccc12 [Example 89],> 1000 nM,
N#C[C@@H]1C[C@@]2(CN1C(=O)C(=O)NC1CCCC1)C(=O)Nc1ccccc12 [Example 90],100 to 1000 nM,
N#C[C@@H]1C[C@@]2(CN1C(=O)C(=O)Nc1ccc3cccnc3c1)C(=O)Nc1ccccc12 [Example 91],> 1000 nM,
N#C[C@@H]1C[C@@]2(CN1C(=O)C(Cc1ccccc1)C(=O)C1CC1)C(=O)Nc1ccccc12 (some centres unmarked) [Example 92],100 to 1000 nM,
N#C[C@@H]1C[C@@]2(CN1C(=O)C(Cc1ccccc1)C(=O)C1CCCCC1)C(=O)Nc1ccccc12 (some centres unmarked) [Example 93],> 1000 nM,
N#C[C@@H]1C[C@@]2(CN1C(=O)[C@H](Cc1ccccc1)C(=O)c1ccccc1)C(=O)Nc1ccccc12 [Example 94],> 1000 nM,
N#C[C@@H]1C[C@@]2(CN1C(=O)[C@@H](Cc1ccccc1)C(=O)c1ccccc1)C(=O)Nc1ccccc12 [Example 95],> 1000 nM,
CC(C)(C(=O)C1CC1)C(=O)N1C[C@]2(C[C@H]1C#N)C(=O)Nc1ccccc12 [Example 100],> 1000 nM,
CC(C)(C(=O)C1CCCCC1)C(=O)N1C[C@]2(C[C@H]1C#N)C(=O)Nc1ccccc12 [Example 101],> 1000 nM,
N#C[C@@H]1C[C@@]2(CN1C(=O)C1(C(=O)c3ccccc3)CC1)C(=O)Nc1ccccc12 [Example 102],> 1000 nM,
CC(C)(C(=O)c1ccccc1)C(=O)N1C[C@]2(C[C@H]1C#N)C(=O)Nc1ccccc12 [Example 111],> 1000 nM,
N#C[C@@H]1C[C@@]2(CN1C(=O)C(=O)OC1CCCC1)C(=O)Nc1ccccc12 [Example 112],> 1000 nM,
N#C[C@@H]1C[C@@]2(CN1C(=O)C(=O)OC1CCCCC1)C(=O)Nc1ccccc12 [Example 113],100 to 1000 nM,
CC(C)NC(=O)[C@@H](Cc1ccccc1)C(=O)N1C[C@]2(C[C@H]1C#N)C(=O)Nc1ccccc12 [Example 114],100 to 1000 nM,
CC(C)NC(=O)[C@H](Cc1ccccc1)C(=O)N1C[C@]2(C[C@H]1C#N)C(=O)Nc1ccccc12 [Example 115],> 1000 nM,
N#C[C@@H]1C[C@@]2(CN1C(=O)[C@H](Cc1ccccc1)C(=O)NC1CC1)C(=O)Nc1ccccc12 [Example 116],100 to 1000 nM,
N#C[C@@H]1C[C@@]2(CN1C(=O)[C@@H](Cc1ccccc1)C(=O)NC1CC1)C(=O)Nc1ccccc12 [Example 117],> 1000 nM,

Structure (SMILES),IC50 [1],IC50
N#C[C@@H]1C[C@@]2(CN1C(=O)[C@H](Cc1ccccc1)C(=O)NC1CCCCC1)C(=O)Nc1ccccc12 [Example 118],100 to 1000 nM,
N#C[C@@H]1C[C@@]2(CN1C(=O)[C@@H](Cc1ccccc1)C(=O)NC1CCCCC1)C(=O)Nc1ccccc12 [Example 119],> 1000 nM,
N#C[C@@H]1C[C@@]2(CN1C(=O)[C@H](Cc1ccccc1)C(=O)Nc1ccccc1)C(=O)Nc1ccccc12 [Example 120],100 to 1000 nM,
N#C[C@@H]1C[C@@]2(CN1C(=O)[C@@H](Cc1ccccc1)C(=O)Nc1ccccc1)C(=O)Nc1ccccc12 [Example 121],> 1000 nM,
CC(C)S(=O)(=O)N1C[C@]2(C[C@H]1C#N)C(=O)Nc1ccccc12 [Example 122],> 1000 nM,
CCOC(=O)C(=O)N1C[C@]2(C[C@H]1C#N)C(=O)Nc1ccccc12 [Example 123],> 1000 nM,
CC(C)OC(=O)C(=O)N1C[C@]2(C[C@H]1C#N)C(=O)Nc1ccccc12 [Example 124],> 1000 nM,
N#C[C@@H]1C[C@@]2(CN1C(=O)C(=O)OC1CC1)C(=O)Nc1ccccc12 [Example 125],> 1000 nM,
N#C[C@@H]1C[C@@]2(CN1C(=O)C(=O)OCc1ccccc1)C(=O)Nc1ccccc12 [Example 126],> 1000 nM,
N#C[C@@H]1C[C@@]2(CN1C(=O)C(=O)OCc1nccs1)C(=O)Nc1ccccc12 [Example 127],> 1000 nM,
N#C[C@@H]1C[C@@]2(CN1S(=O)(=O)C1CCCC1)C(=O)Nc1ccccc12 [Example 128],> 1000 nM,
N#C[C@@H]1C[C@@]2(CN1S(=O)(=O)C1CCCCC1)C(=O)Nc1ccccc12 [Example 129],> 1000 nM,
N#C[C@@H]1C[C@@]2(CN1C(=O)NCc1cc3ccccc3[nH]1)C(=O)Nc1ccccc12 [Example 130],> 1000 nM,
N#C[C@@H]1C[C@@]2(CN1C(=O)NCCc1cc3ccccc3[nH]1)C(=O)Nc1ccccc12 [Example 131],> 1000 nM,
CC(C)C(=O)NN1C[C@]2(C[C@H]1C#N)C(=O)Nc1ccccc12 [Example 139],> 1000 nM,
N#C[C@@H]1C[C@@]2(CN1NC(=O)C1CC1)C(=O)Nc1ccccc12 [Example 140],> 1000 nM,
N#C[C@@H]1C[C@@]2(CN1NC(=O)C1CCCCC1)C(=O)Nc1ccccc12 [Example 141],> 1000 nM,
N#C[C@@H]1C[C@@]2(CN1NC(=O)c1ccccc1)C(=O)Nc1ccccc12 [Example 142],> 1000 nM,
CC1(C)CCC(NC(=O)C(=O)N2C[C@]3(C[C@H]2C#N)C(=O)Nc2ccccc23)CC1 [Example 143],> 1000 nM,
N#C[C@@H]1C[C@@]2(CN1C(=O)C(=O)N[C@H]1CC[C@@H](NC(=O)OCc3ccccc3)CC1)C(=O)Nc1ccccc12 [Example 145],> 1000 nM,
N#C[C@@H]1C[C@@]2(CN1C(=O)C(=O)N[C@H]1CCC(F)(F)C1)C(=O)Nc1ccccc12 [Example 146],100 to 1000 nM,
CC(C)(C)OC(=O)N[C@@H]1CCC[C@@H]1NC(=O)C(=O)N1C[C@]2(C[C@H]1C#N)C(=O)Nc1ccccc12 [Example 147],100 to 1000 nM,
N#C[C@@H]1C[C@@]2(CN1C(=N)C1CC1)C(=O)Nc1ccccc12 [Example 148],> 1000 nM,
N#C[C@@H]1C[C@@]2(CN1C(=O)C(=O)N[C@H]1CC[C@H](C(F)(F)F)CC1)C(=O)Nc1ccccc12 [Example 149],> 1000 nM,
CC(C)(C)OC(=O)N[C@H]1CC[C@@H](NC(=O)C(=O)N2C[C@]3(C[C@H]2C#N)C(=O)Nc2ccccc23)CC1 [Example 150],> 1000 nM,
